Earlier results in patent US20050123612A1, “Ribavirin granulate for producing coated tablets” (priority 2001, published 2005).

System: embryo development
Conditions: animal experiments; in particular first six weeks of embryo development

Q: Which teratogenicity does the source give for `NC(=O)c1ncn([C@@H]2O[C@H](CO)[C@@H](O)[C@H]2O)n1` [ribavirin, 1-β-D-Ribafuranosyl-1,2,4-triazole-3-carboxamide] here?
A: teratogenic
